Biological target: T1, motilin receptors located on the colon of mature rabbits (Oryctolagus cuniculus, UniProt G1T803)
T1 construct: The muscle tissues were homogenized in 10 volumes of buffer; from tissue; host or cells: rabbit colon smooth muscle, crude membrane homogenate
Test: Competition with radiolabeled (I125) porcine motilin for motilin receptors in rabbit colon membranes
Type: binding
Settings: @ 50 nM; I125 motilin (porcine) 25-40 pM; rabbit colon smooth muscle membranes; 30 min at 30° C.
Description: The compounds of the invention were tested for their ability to compete with radiolabeled motilin (porcine) for the motilin receptors located on the colon of mature rabbits. The colon from mature New Zealand rabbits was removed, dissected free from the mucosa and serosa layers, and diced into small pieces. The muscle tissues were homogenized in 10 volumes of buffer (50 mM Tris-Cl, 10 mM MgCl2, 0.1 mg/mL bactracin, and 0.25 mM Peflabloc, pH 7.5) in a Polytron (29,000 rpm, 4×15 seconds). The homogenate was centrifuged at 1000×g for 15 min. and the supernatant discarded. The pellet was washed twice before being suspended in homogenizing buffer. This crude homogenate was then passed first through a 19 gauge needle then a 23 gauge needle to further suspend the material and stored at −80° C. […] The pellet was counted in the gamma counter to determine the percentage of […] motilin and thereby the percent inhibition of the test compound.
% inhibition was determined for some compounds by standard techniques: […]

T1 sequence (G1T803 1-400): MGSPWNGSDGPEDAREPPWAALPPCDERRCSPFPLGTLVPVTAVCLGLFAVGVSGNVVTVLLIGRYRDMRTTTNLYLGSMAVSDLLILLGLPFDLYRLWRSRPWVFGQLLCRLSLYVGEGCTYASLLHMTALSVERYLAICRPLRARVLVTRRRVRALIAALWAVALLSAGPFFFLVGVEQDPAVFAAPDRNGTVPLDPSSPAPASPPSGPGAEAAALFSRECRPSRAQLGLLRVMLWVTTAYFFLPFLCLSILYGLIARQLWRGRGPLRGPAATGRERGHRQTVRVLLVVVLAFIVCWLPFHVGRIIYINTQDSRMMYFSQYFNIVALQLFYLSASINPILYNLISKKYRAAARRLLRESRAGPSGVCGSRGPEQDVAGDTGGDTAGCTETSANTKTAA

Compound | % inhibition
3-Benzyl-3-trichloroacetamido-1-N[(3-(2-morpholinoethoxy)phenyl)amino]methylcyclohexene [Example 7] | 59%
O=C(Nc1ccccc1)N(CC1=CC(Cc2ccccc2)(NC(=O)C(Cl)(Cl)Cl)CCC1)c1cccc(OCCN2CCOCC2)c1 (centres unmarked) [Example 6, 3-Benzyl-3-trichloroacetamido-1-(N-phenylaminocarbonyl)-N-[(3-(2-morpholinoethoxy)phenyl)amino]methylcyclohexene] | 62%
